Experimental data reported in ChEMBL document CHEMBL3885861, “Open TG-GATES”.

Organism: Rattus norvegicus
Assay: Open TG-GATES - Regimen: Daily Repeat
Type: toxicity, organism-based, Sprague-Dawley
Parameters: regimen Daily Repeat, gender Male, age 6 weeks
Conditions: in vivo, po, route gavage; for APTT / Bas / Eos / Fbg / Hb / Ht / Lym / MCH / MCHC / Mono / Neu / Plat / RBC / Ret: tissue Blood; for KIDNEY_L / KIDNEY_R / KIDNEY_TOTAL: tissue Kidney; for LIVER: tissue Liver; for ALP / ALT / AST / BUN / CRE / Ca / Cl / DBIL / GLC / IP / K / LDH / Na / PL / RALB / TBIL / TC / TG / TP / gamma-GTP: tissue Plasma
[1] = 0 mg/kg, 72 h, dose level Control, time 3 day
[2] = 0 mg/kg, […], dose level Control, time 7 day
[3] = 0 mg/kg, […], dose level Control, time 14 day
[4] = 0 mg/kg, […], dose level Control, time 28 day
[5] = 3 mg/kg, 72 h, dose level Low, time 3 day
[6] = 3 mg/kg, […], dose level Low, time 7 day
[7] = 3 mg/kg, […], dose level Low, time 14 day
[8] = 3 mg/kg, […], dose level Low, time 28 day

O=C(CCCN1CCC(O)(c2ccc(Cl)cc2)CC1)c1ccc(F)cc1 [HALOPERIDOL]
TERMINAL_BW [1]: 226.4 g | APTT [1]: 16.5 s | Bas [1]: 0% | Eos [1]: 0.2% | Fbg [1]: 223.2 mg/dL | Hb [1]: 13.8 g/dL | Ht [1]: 41.1% | Lym [1]: 84.4% | MCH [1]: 21.8 pg | MCHC [1]: 33.6% | Mono [1]: 4% | Neu [1]: 11.4% | Plat [1]: 119.4 x10_4/uL | RBC [1]: 632.8 x10_4/ul | Ret [1]: 7.7% | KIDNEY_L [1]: 1 g | KIDNEY_R [1]: 1 g | KIDNEY_TOTAL [1]: 2 g | LIVER [1]: 11.1 g | ALP [1]: 915.2 IU/L | ALT [1]: 38 IU/L | AST [1]: 59.6 IU/L | BUN [1]: 19.2 mg/dL | CRE [1]: 0.6 mg/dL | Ca [1]: 11.2 mg/dL | Cl [1]: 105.8 meq/L | DBIL [1]: 0 mg/dL | GLC [1]: 191.2 mg/dL | IP [1]: 8.4 mg/dL | K [1]: 4.9 meq/L | LDH [1]: 91.8 IU/L | Na [1]: 139.2 meq/L | PL [1]: 166.2 mg/dL | RALB [1]: 4 g/dL | TBIL [1]: 0.2 mg/dL | TC [1]: 88 mg/dL | TG [1]: 96.6 mg/dL | TP [1]: 6 g/dL | gamma-GTP [1]: 1.6 IU/L | TERMINAL_BW [2]: 261.8 g | TERMINAL_BW [3]: 307.2 g | TERMINAL_BW [4]: 396.3 g | APTT [2]: 16.9 s | Bas [2]: 0% | Eos [2]: 0.8% | Fbg [2]: 216.4 mg/dL | Hb [2]: 13.9 g/dL | Ht [2]: 41.8% | Lym [2]: 80.4% | MCH [2]: 21.2 pg | MCHC [2]: 33.3% | Mono [2]: 4.8% | Neu [2]: 14% | Plat [2]: 104.8 x10_4/uL | RBC [2]: 658 x10_4/ul | Ret [2]: 5.8% | APTT [3]: 16.2 s | Bas [3]: 0% | Eos [3]: 0.2% | Fbg [3]: 224.2 mg/dL | Hb [3]: 14.6 g/dL | Ht [3]: 43.8% | Lym [3]: 78.4% | MCH [3]: 20.4 pg | MCHC [3]: 33.3% | Mono [3]: 5.2% | Neu [3]: 16.2% | Plat [3]: 107.4 x10_4/uL | RBC [3]: 716 x10_4/ul | Ret [3]: 3.7% | APTT [4]: 16.6 s | Bas [4]: 0% | Eos [4]: 0.8% | Fbg [4]: 235.8 mg/dL | Hb [4]: 15.1 g/dL | Ht [4]: 45.3% | Lym [4]: 80.8% | MCH [4]: 19.2 pg | MCHC [4]: 33.4% | Mono [4]: 5.8% | Neu [4]: 12.6% | Plat [4]: 105.5 x10_4/uL | RBC [4]: 787.6 x10_4/ul | Ret [4]: 3% | KIDNEY_L [2]: 1.1 g | KIDNEY_R [2]: 1.1 g | KIDNEY_TOTAL [2]: 2.1 g | KIDNEY_L [3]: 1.2 g | KIDNEY_R [3]: 1.2 g | KIDNEY_TOTAL [3]: 2.4 g | KIDNEY_L [4]: 1.4 g | KIDNEY_R [4]: 1.4 g | KIDNEY_TOTAL [4]: 2.8 g | LIVER [2]: 12.9 g | LIVER [3]: 14 g | LIVER [4]: 16.7 g | ALP [2]: 874.8 IU/L | ALT [2]: 33.4 IU/L | AST [2]: 59.4 IU/L | BUN [2]: 20.2 mg/dL | CRE [2]: 0.5 mg/dL | Ca [2]: 11.2 mg/dL | Cl [2]: 104.8 meq/L | DBIL [2]: 0.006 mg/dL | GLC [2]: 196 mg/dL | IP [2]: 7.4 mg/dL | K [2]: 4.6 meq/L | LDH [2]: 93 IU/L | Na [2]: 138.8 meq/L | PL [2]: 169.8 mg/dL | RALB [2]: 3.9 g/dL | TBIL [2]: 0.3 mg/dL | TC [2]: 83 mg/dL | TG [2]: 134.4 mg/dL | TP [2]: 5.9 g/dL | gamma-GTP [2]: 1.8 IU/L | ALP [3]: 784.8 IU/L | ALT [3]: 32.6 IU/L | AST [3]: 62.4 IU/L | BUN [3]: 21.2 mg/dL | CRE [3]: 0.5 mg/dL | Ca [3]: 10.7 mg/dL | Cl [3]: 106.8 meq/L | DBIL [3]: 0.01 mg/dL | GLC [3]: 195.4 mg/dL | IP [3]: 7.4 mg/dL | K [3]: 4.8 meq/L | LDH [3]: 93.2 IU/L | Na [3]: 138.2 meq/L | PL [3]: 161.2 mg/dL | RALB [3]: 3.9 g/dL | TBIL [3]: 0.3 mg/dL | TC [3]: 76.2 mg/dL | TG [3]: 149 mg/dL | TP [3]: 6.2 g/dL | gamma-GTP [3]: 1.4 IU/L | ALP [4]: 558 IU/L | ALT [4]: 30.4 IU/L | AST [4]: 58.8 IU/L | BUN [4]: 22.2 mg/dL | CRE [4]: 0.6 mg/dL | Ca [4]: 11.1 mg/dL | Cl [4]: 105 meq/L | DBIL [4]: 0.052 mg/dL | GLC [4]: 177.4 mg/dL | IP [4]: 7.8 mg/dL | K [4]: 4.6 meq/L | LDH [4]: 79.4 IU/L | Na [4]: 140 meq/L | PL [4]: 160.8 mg/dL | RALB [4]: 4.1 g/dL | TBIL [4]: 0.2 mg/dL | TC [4]: 75.2 mg/dL | TG [4]: 176.2 mg/dL | TP [4]: 6.6 g/dL | gamma-GTP [4]: 1.6 IU/L | TERMINAL_BW [5]: 219.6 g | APTT [5]: 16 s | Bas [5]: 0% | Eos [5]: 1.4% | Fbg [5]: 210 mg/dL | Hb [5]: 14.1 g/dL | Ht [5]: 42.1% | Lym [5]: 75.8% | MCH [5]: 21.4 pg | MCHC [5]: 33.5% | Mono [5]: 5% | Neu [5]: 17.8% | Plat [5]: 113.5 x10_4/uL | RBC [5]: 658.8 x10_4/ul | Ret [5]: 6.6% | KIDNEY_L [5]: 0.9 g | KIDNEY_R [5]: 0.9 g | KIDNEY_TOTAL [5]: 1.9 g | LIVER [5]: 10.7 g | ALP [5]: 995 IU/L | ALT [5]: 39.6 IU/L | AST [5]: 62 IU/L | BUN [5]: 21 mg/dL | CRE [5]: 0.5 mg/dL | Ca [5]: 11.3 mg/dL | Cl [5]: 106.2 meq/L | DBIL [5]: 0 mg/dL | GLC [5]: 183.6 mg/dL | IP [5]: 7.9 mg/dL | K [5]: 4.8 meq/L | LDH [5]: 76.4 IU/L | Na [5]: 138.6 meq/L | PL [5]: 195.4 mg/dL | RALB [5]: 4 g/dL | TBIL [5]: 0.2 mg/dL | TC [5]: 93.6 mg/dL | TG [5]: 112 mg/dL | TP [5]: 6 g/dL | gamma-GTP [5]: 1.4 IU/L | TERMINAL_BW [6]: 256.9 g | TERMINAL_BW [7]: 298.2 g | TERMINAL_BW [8]: 375.7 g | APTT [6]: 16.5 s | Bas [6]: 0% | Eos [6]: 0.2% | Fbg [6]: 217 mg/dL | Hb [6]: 14.3 g/dL | Ht [6]: 42.9% | Lym [6]: 79.2% | MCH [6]: 21.1 pg | MCHC [6]: 33.4% | Mono [6]: 4.4% | Neu [6]: 16.2% | Plat [6]: 100.7 x10_4/uL | RBC [6]: 678.4 x10_4/ul | Ret [6]: 5.1% | APTT [7]: 17.2 s | Bas [7]: 0% | Eos [7]: 0.8% | Fbg [7]: 226.4 mg/dL | Hb [7]: 15.1 g/dL | Ht [7]: 45.1% | Lym [7]: 76.6% | MCH [7]: 20.9 pg | MCHC [7]: 33.6% | Mono [7]: 5.2% | Neu [7]: 17.4% | Plat [7]: 108.9 x10_4/uL | RBC [7]: 723.2 x10_4/ul | Ret [7]: 4% | APTT [8]: 17.3 s | Bas [8]: 0% | Eos [8]: 0% | Fbg [8]: 223.4 mg/dL | Hb [8]: 15.2 g/dL | Ht [8]: 45.4% | Lym [8]: 84.4% | MCH [8]: 19.4 pg | MCHC [8]: 33.5% | Mono [8]: 2.4% | Neu [8]: 13.2% | Plat [8]: 99.3 x10_4/uL | RBC [8]: 782.4 x10_4/ul | Ret [8]: 2.3% | KIDNEY_L [6]: 1 g | KIDNEY_R [6]: 1.1 g | KIDNEY_TOTAL [6]: 2.1 g | KIDNEY_L [7]: 1.2 g | KIDNEY_R [7]: 1.2 g | KIDNEY_TOTAL [7]: 2.4 g | KIDNEY_L [8]: 1.3 g | KIDNEY_R [8]: 1.2 g | KIDNEY_TOTAL [8]: 2.5 g | LIVER [6]: 12.2 g | LIVER [7]: 13.3 g | LIVER [8]: 14.9 g | ALP [6]: 845.6 IU/L | ALT [6]: 33.2 IU/L | AST [6]: 61.4 IU/L | BUN [6]: 19.2 mg/dL | CRE [6]: 0.6 mg/dL | Ca [6]: 11.6 mg/dL | Cl [6]: 106.8 meq/L | DBIL [6]: 0 mg/dL | GLC [6]: 187.8 mg/dL | IP [6]: 7.7 mg/dL | K [6]: 4.6 meq/L | LDH [6]: 93.4 IU/L | Na [6]: 138.4 meq/L | PL [6]: 162 mg/dL | RALB [6]: 4 g/dL | TBIL [6]: 0.2 mg/dL | TC [6]: 74.6 mg/dL | TG [6]: 132 mg/dL | TP [6]: 6.1 g/dL | gamma-GTP [6]: 1.4 IU/L | ALP [7]: 747.6 IU/L | ALT [7]: 28.2 IU/L | AST [7]: 63.2 IU/L | BUN [7]: 20 mg/dL | CRE [7]: 0.5 mg/dL | Ca [7]: 11 mg/dL | Cl [7]: 106.4 meq/L | DBIL [7]: 0.01 mg/dL | GLC [7]: 178.4 mg/dL | IP [7]: 6.8 mg/dL | K [7]: 4.7 meq/L | LDH [7]: 89.6 IU/L | Na [7]: 137.8 meq/L | PL [7]: 144.8 mg/dL | RALB [7]: 4 g/dL | TBIL [7]: 0.3 mg/dL | TC [7]: 62.2 mg/dL | TG [7]: 144.2 mg/dL | TP [7]: 6.3 g/dL | gamma-GTP [7]: 1.8 IU/L | ALP [8]: 579.4 IU/L | ALT [8]: 62.6 IU/L | AST [8]: 58.8 IU/L | BUN [8]: 20.8 mg/dL | CRE [8]: 0.6 mg/dL | Ca [8]: 10.9 mg/dL | Cl [8]: 107.6 meq/L | DBIL [8]: 0.054 mg/dL | GLC [8]: 178.6 mg/dL | IP [8]: 6.7 mg/dL | K [8]: 4.5 meq/L | LDH [8]: 76.2 IU/L | Na [8]: 139 meq/L | PL [8]: 145 mg/dL | RALB [8]: 4.1 g/dL | TBIL [8]: 0.2 mg/dL | TC [8]: 62.8 mg/dL | TG [8]: 187.4 mg/dL | TP [8]: 6.6 g/dL | gamma-GTP [8]: 1.4 IU/L
